{"source": "paper PMC9374667", "about": "(Communications Biology, 2022)", "key": {"Ikbke": {"test_system": "Ikbke", "assay": "RT-qPCR of Ikbke in eWAT and BAT", "type": "in vivo", "details": "db/db mice, both doses of BJ", "text": "Total RNA was isolated from 3T3-L1 cells and adipose tissue homogenates using Trizol reagent (Invitrogen, Carlsbad, CA, USA). RNA concentration and purity were examined at 260/280 nm using a nanodrop spectrophotometer (NanoDrop One, Thermo Fisher Scientific, USA). The total RNA was reverse transcribed to cDNA using the EasyScript All-in-One First-Strand cDNA Synthesis SuperMix for qPCR kit (TransGen Biotech, Beijing, China). The quantitative reverse transcription polymerase chain reaction was performed using TransStart Top Green qPCR SuperMix (TransGen Biotech, Beijing, China) and an Applied Biosystems 7500 RealTime PCR System (Life Technologies, USA). Relative expression levels were normalized to gapdh expression and quantified using the 2^-ΔΔCt method. The primers were synthesized by Shanghai Sangon Biotech, and the detailed primer sequences were shown in Supplementary Table 5 in the supplementary materials."}, "IKKε [1]": {"target": "T1, IKKε (Mus musculus, UniProt Q9R0T8)", "T1 sequence (Q9R0T8 1-717)": "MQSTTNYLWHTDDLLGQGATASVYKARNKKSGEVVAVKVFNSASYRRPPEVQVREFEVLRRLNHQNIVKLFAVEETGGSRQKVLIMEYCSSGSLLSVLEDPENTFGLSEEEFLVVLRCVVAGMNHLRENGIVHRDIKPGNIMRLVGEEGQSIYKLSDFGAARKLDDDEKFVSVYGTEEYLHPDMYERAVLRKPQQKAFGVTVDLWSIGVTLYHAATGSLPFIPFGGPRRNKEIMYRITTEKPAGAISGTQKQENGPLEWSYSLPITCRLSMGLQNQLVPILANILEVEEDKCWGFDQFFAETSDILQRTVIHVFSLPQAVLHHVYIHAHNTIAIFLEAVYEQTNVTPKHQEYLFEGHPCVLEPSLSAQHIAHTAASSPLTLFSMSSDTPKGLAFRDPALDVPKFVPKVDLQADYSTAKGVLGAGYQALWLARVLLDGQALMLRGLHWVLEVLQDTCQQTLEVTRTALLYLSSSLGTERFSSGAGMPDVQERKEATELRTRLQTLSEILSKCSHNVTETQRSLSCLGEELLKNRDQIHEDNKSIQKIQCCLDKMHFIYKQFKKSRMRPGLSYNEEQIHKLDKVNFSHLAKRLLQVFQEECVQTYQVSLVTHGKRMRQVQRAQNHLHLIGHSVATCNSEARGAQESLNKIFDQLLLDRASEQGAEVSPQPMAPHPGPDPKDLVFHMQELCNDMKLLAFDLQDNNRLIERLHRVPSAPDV", "assay": "IKKε kinase activity in TNF-α induced 3T3-L1 adipocytes", "type": "cell-based, Murine", "design": "endogenous in cells; host or cells: differentiated 3T3-L1 adipocytes; IKKε kinase activity: unit not given here", "details": "for IKKε kinase activity: Figure 7h, replicates"}, "IKKε [2]": {"target": "T1, IKKε", "assay": "3T3-L1 adipocytes transfected with IKKε plasmid (western blotting, cAMP, glycerol, ISO)", "type": "cell-based, Murine", "design": "endogenous in cells; host or cells: differentiated 3T3-L1 adipocytes; IKKε (western blotting, Figure 8h) / UCP1 (western blotting, Figure 8i) / UCP1 (western blotting, Figure 8j): scale not given here; cAMP levels (Figure 8k) / Glycerol release (Figure 8l): unit not given here", "procedure": "Small interference RNA transfection (siRNA) was performed using 4 μM TBK1 siRNA (siTBK1) or 4 μM […]ε) or corresponding NC siRNA (siNC). The epididymal adipose tissue was dissected, the fresh adipose tissue was weighed and rapidly rinsed with PBS. The adipose tissue was cut and incubated with isoproterenol (10 μM) for 2 h, and homogenized in a cold cleavage buffer to prepare the adipose tissue homogenate. Then the homogenate was centrifuged at 12,000 × g at 4 °C for 15 min, and the supernatant was collected. […] Then the cells were lysed in a petri dish, scraped off, and centrifuged at 12,000 × g at 4 °C for 15 min before the supernatant was collected. […] And concentrations were further standardized according to protein concentration. The adipose tissue or 3T3-L1 adipocytes were homogenized by ultrasound in an ice-cold RIPA lysis buffer containing 1% PMSF and centrifuged at 12,000 × g at 4°C for 15 min to collect the supernatant. The BCA protein assay kit (Beyotime, Shanghai, China) was used to detect the total protein concentration. Proteins (20-30 μg) of the sample were separated by 10% SDS-PAGE gel and transferred onto polyvinylidene difluoride (PVDF) membranes. Then the PVDF membranes were blocked in 5% skim milk powder in TBS containing 1% Tween-20 (TBST) for 2 h at room temperature and washed with TBST for 3 times. […] After washing, the membranes were incubated with horseradish peroxidase-conjugated secondary antibodies (in 5% skim milk powder) for 1 h at room temperature. Finally, the membranes were treated with enhanced chemiluminescence agents (Tanon, Shanghai, China) and the signals were monitored using the Tanon 5200 multi chemiluminescent imaging system (Tanon, Shanghai, China)."}, "[3]": {"details": "cited from earlier work"}, "[4]": {"details": "3T3-L1 adipocytes transfected with IKKε plasmid, 24 h of BJ treatment"}}, "note": "Values joined by “and” are separate entries in the source; they are usually repeats but may differ in a detail not shown here. Equal entries are not always repeated. Where two headings read alike, the source gives them in different places.", "data": [{"smiles": "CC(C)Cc1ccc(C(C)C(=O)[O-])cc1.COc1ccc2cc3[n+](cc2c1OC)CCc1cc2c(cc1-3)OCO2.O.O.O.O", "note": "[BJ, berberine-ibuprofen]", "values": [{"measurement": "Ikbke mRNA expression in BAT", "setting": "Ikbke", "result": "had no effect"}, {"measurement": "mRNA level of IKKε (Ikbke) in eWAT", "setting": "Ikbke", "result": "significantly reduced"}, {"measurement": "IKKε kinase activity", "setting": "IKKε [1]; TNF-α(50ng/ml)+3μM BJ", "result": "47.3662 and 40.5834 and 38.8273 and 37.402 and 43.0522 and 46.31"}, {"measurement": "IKKε kinase activity", "setting": "IKKε [1]; TNF-α(50ng/ml)+10μM BJ", "result": "22.5765 and 26.127 and 25.2998 and 23.4546 and 23.7218 and 26.8142"}, {"measurement": "IKKε expression level / kinase activity", "setting": "IKKε [1]; TNF-α induced 3T3-L1 adipocytes, BJ treatment for 24 h", "result": "markedly decreased"}, {"measurement": "IKKε (western blotting, Figure 8h)", "setting": "IKKε [2]", "result": "0.3064 and 0.3337 and 0.413"}, {"measurement": "IKKε (western blotting, Figure 8h)", "setting": "IKKε [2]; 3μg IKKε+10μM BJ", "result": "0.3573 and 0.3516 and 0.3871"}, {"measurement": "UCP1 (western blotting, Figure 8i)", "setting": "IKKε [2]; 3μg IKKε+10μM BJ", "result": "0.8819 and 0.7296 and 0.665"}, {"measurement": "UCP1 (western blotting, Figure 8i)", "setting": "IKKε [2]; 10μM BJ", "result": "0.7179 and 0.7672 and 0.7892"}, {"measurement": "IKKε protein level", "setting": "IKKε [2]; [4]", "result": "significantly decreased"}, {"measurement": "UCP1 protein level", "setting": "IKKε [2]; [4]", "result": "significantly increased"}, {"measurement": "Glycerol release (Figure 8l)", "setting": "IKKε [2]; BJ", "result": "86.9484 and 84.4172 and 92.0109"}, {"measurement": "UCP1 (western blotting, Figure 8j)", "setting": "IKKε [2]; BJ", "result": "0.7729 and 0.7093 and 0.8167"}, {"measurement": "cAMP levels (Figure 8k)", "setting": "IKKε [2]; BJ", "result": "0.1832 and 0.1783 and 0.1808"}, {"measurement": "Glycerol release (Figure 8l)", "setting": "IKKε [2]; BJ+IKKε", "result": "68.3861 and 70.0736 and 61.6362"}, {"measurement": "UCP1 (western blotting, Figure 8j)", "setting": "IKKε [2]; BJ+IKKε", "result": "0.4841 and 0.4628 and 0.4991"}, {"measurement": "cAMP levels (Figure 8k)", "setting": "IKKε [2]; BJ+IKKε", "result": "0.1738 and 0.178 and 0.1687"}, {"measurement": "Glycerol release (Figure 8l)", "setting": "IKKε [2]; ISO+BJ", "result": "156.135 and 153.604 and 151.073"}, {"measurement": "UCP1 (western blotting, Figure 8j)", "setting": "IKKε [2]; ISO+BJ", "result": "0.9653 and 0.8916 and 1.268"}, {"measurement": "cAMP levels (Figure 8k)", "setting": "IKKε [2]; ISO+BJ", "result": "0.3323 and 0.3162 and 0.3269"}, {"measurement": "Glycerol release (Figure 8l)", "setting": "IKKε [2]; ISO+BJ+IKKε", "result": "123.229 and 124.917 and 128.292"}, {"measurement": "UCP1 (western blotting, Figure 8j)", "setting": "IKKε [2]; ISO+BJ+IKKε", "result": "0.6833 and 0.6687 and 0.7939"}, {"measurement": "cAMP levels (Figure 8k)", "setting": "IKKε [2]; ISO+BJ+IKKε", "result": "0.2266 and 0.2216 and 0.2337"}, {"measurement": "Inhibition of ISO efficacy (UCP1, glycerol release, cAMP) by IKKε overexpression", "setting": "IKKε [2]; transfected 3T3-L1 adipocytes, 10 µM BJ", "result": "ameliorated"}]}, {"smiles": "COc1ccc2cc3[n+](cc2c1OC)CCc1cc2c(cc1-3)OCO2", "note": "[BBR, Berberine chloride dihydrate]", "values": [{"measurement": "Maximum plasma concentration (Cmax)", "setting": "[3]; acute oral BBR (400 mg) provocation tests", "result": "approximately 0.4 ng/ml"}, {"measurement": "Share of the oral dose that enters the systemic circulation", "setting": "[3]; human subjects", "result": "less than 5%"}, {"measurement": "Steady-state concentration in human plasma", "setting": "[3]; oral BBR 300 mg/d for seven days", "result": "approximately 0.3 ng/ml"}]}]}
